Laboratory results reported in patent publication US4788216A, “Medicinal uses for podophyllotoxins” (Conpharm AB, priority 1984, dated 1988).
In brackets after ≈: the same amount, converted by molar mass. Several values for one entry are separate records, joined by “and”; a condition that tells them apart may be missing. Equal entries are not always repeated.

Experiments:
cytotoxic cells = test: In vitro development of cytotoxic cells; format: cell-based
[1] = tested on: psoriasis vulgaris lesions; test: Clinical investigation in psoriasis vulgaris patients, topical cream; format: in vivo, human (patients)
Method: A clinical investigation was carried out with totally 152 patients of an age between 19 and 71 years (mean value 46.1 years) afflicted with psoriasis vulgaris. The patients were divided into three groups of 50, 51 and 51 persons who were treated topically with a cream containing 0.1, 0.25 and 0.5% of podophyllotoxin, respectively. Each patient was treated only on a specific attacked area of the body while other attacked areas served as comparison. The severity of the attack was judged at the start of the treatment, and 2, 4, 8, 12 and 16 weeks after this, no treatment being carried out during the last period of 4 weeks. The investigation was carried out with double blind technique and the results were treated statistically.

Acute toxicity in rabbit = conditions: in vivo, topical or ocular, dermal
Excerpt: (§1) The acute toxicity of podophyllotoxin has been determined on various test animals and by various ways of administration.

Acute toxicity in mouse = conditions: in vivo
Excerpt: as §1

Solubility in water = format: physicochemical; conditions: in its pure state
Excerpt: The compound podophyllotoxin has the following physical data in its pure state: […]

Acute toxicity in rat = conditions: in vivo
Excerpt: as §1

[2] = tested on: formation of specific antibodies; test: Antibody formation in mice injected with sheep erythrocytes; format: in vivo; conditions: daily injections after administration of erythrocytes, spleen
Excerpt: Injection with a suspension of erythrocytes from sheep to mice causes formation of specific antibodies against this antigen. This reaction which normally is very strong requires a cooperation between different cell types, substantially macrophages, T and B lymphocytes, and can easily be detected in the spleen of the test animals.

Plasmodium falciparum = test: Clinical effect against malaria (number of asexual parasites in blood of patients); format: in vivo; conditions: individual patient
Method: The effect against malaria was determined clinically on a number of patients which had been attacked by the malaria parasite Plasmodium falciparum. Podophyllotoxin was administered in two different doses and the number of parasites in the patients was determined for each day and was noted as the number of asexual parasites per cubic millimeter of blood.

proliferation of cells = test: In vitro proliferation of cells caused by mitogenic lectins or cells from a non-related individual; format: cell-based

In the case of `COc1cc([C@@H]2c3cc4c(cc3[C@H](O)[C@H]3COC(=O)[C@H]23)OCO4)cc(OC)c1OC` [podophyllotoxin], the “inhibition of development of cytotoxic cells” value (cytotoxic cells) is reported as “inhibits the development of cytotoxic cells”, the “effects at markedly lower doses (development of cytotoxic cells)” value (cytotoxic cells; markedly lower doses) is reported as “at markedly lower doses these effects increase” and the “reversibility of secondary effects” value ([1]; after interruption of the treatment) is reported as “disappeared after interruption of the treatment”. The “difference between treated and untreated lesions” value ([1]; after two weeks and in the course of the treatment) was “statistically significant difference”, the “patients free from symptoms or with only mild ones” value ([1]; at the fifth control, untreated lesions: only two patients) was 70-75% and the “improvement of severity of treated lesions with associated symptoms” value ([1]; cream 0.1, 0.25 and 0.5%, all three dosage levels) was “statistically significant improvements”. For the same molecule, the “patients reporting secondary effects such as rash” value ([1]; of 152 patients, three cream strengths together) was 11 patients, the “deterioration of severity or symptoms of treated lesions in follow-up” value ([1]; weeks 13 to 16, no treatment) was “no deterioration occurred” and the LD50 (Acute toxicity in rabbit) was 200 mg/kg. It also gave an LD50 (Acute toxicity in mouse; iv) of 20 mg/kg, an LD50 (Acute toxicity in mouse; po) of 100 mg/kg and a solubility (Solubility in water) of 120 µg/mL (≈ 290 µM). For the same molecule, the LD50 (Acute toxicity in rat; iv) was 10 mg/kg, the LD50 (Acute toxicity in rat; topical or ocular, dermal) was 500 mg/kg and the “inhibition of antibody formation against sheep erythrocytes” value [2] was “inhibited in a dose-dependent way”. For the same molecule, the “Remarks (outcome)” value (Plasmodium falciparum; 1.5 mg per day (t.i.d.)) was “Marked reduction of parasites”, the “number of asexual parasites, day 0” value (Plasmodium falciparum; 1.5 mg per day (t.i.d.)) was 660 asexual parasites per cubic mi and 13710 asexual parasites per cubic mi and 1410 asexual parasites per cubic mi and 960 asexual parasites per cubic mi and 13080 asexual parasites per cubic mi and 4380 asexual parasites per cubic mi and the “number of asexual parasites, day 1” value (Plasmodium falciparum; 1.5 mg per day (t.i.d.)) was 180 asexual parasites per cubic mi and 3000 asexual parasites per cubic mi and 360 asexual parasites per cubic mi and 90 asexual parasites per cubic mi and 510 asexual parasites per cubic mi and 1560 asexual parasites per cubic mi. For the same molecule, the “number of asexual parasites, day 2” value (Plasmodium falciparum; 1.5 mg per day (t.i.d.)) was 0 asexual parasites per cubic mi and 120 asexual parasites per cubic mi and 180 asexual parasites per cubic mi, the “number of asexual parasites, day 3” value (Plasmodium falciparum; 1.5 mg per day (t.i.d.)) was 0 asexual parasites per cubic mi and 660 asexual parasites per cubic mi and the “number of asexual parasites, day 4” value (Plasmodium falciparum; 1.5 mg per day (t.i.d.)) was 180 asexual parasites per cubic mi and 0 asexual parasites per cubic mi and 60 asexual parasites per cubic mi and 1400 asexual parasites per cubic mi. For the same molecule, the “number of asexual parasites, day 5” value (Plasmodium falciparum; 1.5 mg per day (t.i.d.)) was 270 asexual parasites per cubic mi and 0 asexual parasites per cubic mi and 60 asexual parasites per cubic mi, the “number of asexual parasites, day 6” value (Plasmodium falciparum; 1.5 mg per day (t.i.d.)) was 270 asexual parasites per cubic mi and 0 asexual parasites per cubic mi and 60 asexual parasites per cubic mi and the “number of asexual parasites, day 7” value (Plasmodium falciparum; 1.5 mg per day (t.i.d.)) was 270 asexual parasites per cubic mi and 0 asexual parasites per cubic mi and 60 asexual parasites per cubic mi. The “Remarks (outcome)” value (Plasmodium falciparum; 3.0 mg per day (t.i.d.)) was “Cured”, the “number of asexual parasites, day 0” value (Plasmodium falciparum; 3.0 mg per day (t.i.d.)) was 2880 asexual parasites per cubic mi and 2060 asexual parasites per cubic mi and 6080 asexual parasites per cubic mi and 320 asexual parasites per cubic mi and the “number of asexual parasites, day 1” value (Plasmodium falciparum; 3.0 mg per day (t.i.d.)) was 2520 asexual parasites per cubic mi and 1600 asexual parasites per cubic mi and 2000 asexual parasites per cubic mi and 60 asexual parasites per cubic mi. For the same molecule, the “number of asexual parasites, day 2” value (Plasmodium falciparum; 3.0 mg per day (t.i.d.)) was 60 asexual parasites per cubic mi and 0 asexual parasites per cubic mi, the “number of asexual parasites, day 3” value (Plasmodium falciparum; 3.0 mg per day (t.i.d.)) was 540 asexual parasites per cubic mi and 0 asexual parasites per cubic mi and the “number of asexual parasites, day 4” value (Plasmodium falciparum; 3.0 mg per day (t.i.d.)) was 600 asexual parasites per cubic mi and 0 asexual parasites per cubic mi. The “number of asexual parasites, day 5” value (Plasmodium falciparum; 3.0 mg per day (t.i.d.)) was 600 asexual parasites per cubic mi and 0 asexual parasites per cubic mi, the “number of asexual parasites, day 6” value (Plasmodium falciparum; 3.0 mg per day (t.i.d.)) was 0 asexual parasites per cubic mi and the “number of asexual parasites, day 7” value (Plasmodium falciparum; 3.0 mg per day (t.i.d.)) was 0 asexual parasites per cubic mi. For the same molecule, the “time to recover complete reactivity to the stimuli” value (proliferation of cells; cells treated with podophyllotoxin) was ≤ 24 h, the “effects at markedly lower doses (proliferation)” value (proliferation of cells; in vitro, markedly lower doses) was “at markedly lower doses these effects increase” and the “inhibition of proliferation of cells” value (proliferation of cells; in vitro, mitogenic lectins or cells from a non-related individual) was “inhibits the proliferation of cells”.
